Here are results for eleven compounds from publication PMC9905294 (Biochemistry, 2023).

Each structure is given as a SMILES string. Values after ≈ are worked out from the molar mass of the structure shown. Read-outs that look alike come from different tables or passages of the source.

Assay [1] deals with T1, Mtb Eis (Mycobacterium tuberculosis, UniProt P9WFK7). Put plainly: Eis acetylation assay. It is filed as biochemical.
For assay [2], the target named is T1, Mtb Eis. It is filed as biochemical. To be noted: for mode of inhibition with respect to KAN: Michaelis-Menten analysis of KAN acetylation by Eis.
In the next assay the test system is Mtb mc^26230. In words: MIC determination of compounds alone. To be noted: for MIC: Mycobacterium tuberculosis, read-out: MIC mc^26230; for MIC mc^26230: compound alone, duplicate. It counts as cell-based, Mycobacterium tuberculosis.
Another assay has as its target AAC(2’)-Ic (Mycobacterium tuberculosis, UniProt P9WQG9). In words: Inhibitor selectivity, NEO acetylation assay. It counts as biochemical. The note with it: concentrations up to 200 μM.
A further assay deals with AAC(3)-IV (Salmonella sp, UniProt P08988). It is filed as biochemical. The note with it: concentrations up to 200 μM.
For the next assay, the target named is AAC(6’)-Ie/APH(2”)-Ia (Staphylococcus aureus, UniProt P0A0C1). Put plainly: Inhibitor selectivity, NEO acetylation assay. It counts as biochemical. To be noted: concentrations up to 200 μM.
The target of assay [3] is T1, Mtb Eis. Put plainly: Screening acetylation assay with NEO as substrate. The note with it: conditions of the original high-throughput assay; compound 20 μM, NEO 100 μM. It counts as biochemical.
[4] abbreviates: with respect to KAN, global nonlinear regression fit.
Where [5] appears, read: Eis 0.25 μM, KAN 100 μM, AcCoA 0.5 mM, Tris-HCl pH 8.0, triplicate.

T1 sequence (P9WFK7 whole entry): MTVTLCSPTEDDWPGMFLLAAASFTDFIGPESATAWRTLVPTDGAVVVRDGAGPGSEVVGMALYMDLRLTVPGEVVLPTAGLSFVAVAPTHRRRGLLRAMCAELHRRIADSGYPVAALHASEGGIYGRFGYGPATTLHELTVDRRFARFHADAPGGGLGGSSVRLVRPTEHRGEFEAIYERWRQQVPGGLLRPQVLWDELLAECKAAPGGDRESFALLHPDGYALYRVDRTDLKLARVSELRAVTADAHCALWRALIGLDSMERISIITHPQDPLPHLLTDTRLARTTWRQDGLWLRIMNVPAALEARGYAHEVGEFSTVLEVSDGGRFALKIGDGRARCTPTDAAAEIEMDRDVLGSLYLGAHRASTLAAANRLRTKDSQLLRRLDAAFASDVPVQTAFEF
Chain of AAC(3)-IV (P08988 whole entry): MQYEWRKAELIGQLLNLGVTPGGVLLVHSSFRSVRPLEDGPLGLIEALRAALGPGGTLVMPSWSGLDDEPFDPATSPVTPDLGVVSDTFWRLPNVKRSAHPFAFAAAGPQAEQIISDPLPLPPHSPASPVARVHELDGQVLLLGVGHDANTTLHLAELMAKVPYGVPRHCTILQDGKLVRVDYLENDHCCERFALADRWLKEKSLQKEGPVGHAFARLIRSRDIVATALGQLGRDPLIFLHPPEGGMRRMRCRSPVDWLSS
Chain of AAC(2’)-Ic (P9WQG9 whole entry): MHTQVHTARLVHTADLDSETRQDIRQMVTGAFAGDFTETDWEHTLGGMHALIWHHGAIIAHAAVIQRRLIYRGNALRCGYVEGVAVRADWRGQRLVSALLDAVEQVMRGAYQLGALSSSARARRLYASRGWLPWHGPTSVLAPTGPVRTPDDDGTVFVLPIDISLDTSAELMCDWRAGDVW
Chain of AAC(6’)-Ie/APH(2”)-Ia (P0A0C1 whole entry): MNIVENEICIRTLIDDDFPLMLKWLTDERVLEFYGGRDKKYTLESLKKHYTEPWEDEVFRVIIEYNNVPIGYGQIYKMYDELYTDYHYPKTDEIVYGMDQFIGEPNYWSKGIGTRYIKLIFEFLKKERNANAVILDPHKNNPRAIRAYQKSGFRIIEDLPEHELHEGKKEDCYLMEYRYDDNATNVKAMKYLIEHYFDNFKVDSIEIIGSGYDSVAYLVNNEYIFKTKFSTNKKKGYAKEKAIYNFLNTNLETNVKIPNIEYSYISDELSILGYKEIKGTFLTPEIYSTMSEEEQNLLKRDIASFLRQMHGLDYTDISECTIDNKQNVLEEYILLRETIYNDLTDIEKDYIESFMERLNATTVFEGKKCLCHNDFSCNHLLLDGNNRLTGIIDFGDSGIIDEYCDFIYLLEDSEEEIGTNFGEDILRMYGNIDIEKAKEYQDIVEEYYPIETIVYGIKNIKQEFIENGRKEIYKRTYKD

Turning to `CN1CCCC(n2nc(Cc3ccc(Cl)cc3)c3ccccc3c2=O)CC1` (stereo not shown) [Azelastine (AZL), Azelastine], on Mtb Eis [1], the IC50 came to 0.79 ± 0.08 µM. Moreover, on Mtb Eis [2], the affinity corresponds to a Ki of 0.24 ± 0.05 µM and the “mode of inhibition with respect to KAN” value is reported as “competitive”. Moreover, on Mtb Eis [2] (setting [4]), the “Ki,u (equilibrium constant for inhibitor binding to enzyme-substrate complex)” value is given as 0.9 ± 0.5 (p = 0.08) μM. In addition, in the assay on Mtb mc^26230, the MIC came to 32 µM (≈ 12.2 µg/mL). Also, the “inhibition of NEO acetylation by AAC(2’)-Ic” value (shortened to “inhibition … by AAC(2’)-Ic”) against AAC(2’)-Ic is given as “not inhibited”. Moreover, the “inhibition of NEO acetylation by AAC(3)-IV” value (“inhibition … by AAC(3)-IV” below) against AAC(3)-IV is listed as “not inhibited”. The “inhibition of NEO acetylation by AAC(6’)-Ie” value (“inhibition … by AAC(6’)-Ie” for short) at AAC(6’)-Ie/APH(2”)-Ia is “not inhibited”.
Consider `CCN(CC)CCCC(C)Nc1ccnc2cc(Cl)ccc12` (stereo not shown) [Chloroquine (CHQ), Chloroquine], for which it took 20 ± 2 µM to reach half-maximal inhibition against Mtb Eis [1] (IC50). Further, on Mtb Eis [2], the Ki came out at 12.3 ± 2.7 µM and the “mode of inhibition with respect to KAN” value is recorded as “competitive”. In addition, the “Ki,u (equilibrium constant for inhibitor binding to enzyme-substrate complex)” value on Mtb Eis [2] (setting [4]) was 35 ± 20 (p = 0.1) μM. Moreover, in the assay with Mtb mc^26230, the MIC is 64 µM (≈ 20.5 µg/mL). Further, the “inhibition … by AAC(2’)-Ic” value on AAC(2’)-Ic is “not inhibited”. The “inhibition … by AAC(3)-IV” value against AAC(3)-IV was “not inhibited”. For the same compound, at AAC(6’)-Ie/APH(2”)-Ia, the “inhibition … by AAC(6’)-Ie” value is recorded as “not inhibited”.
Regarding `NNC(=O)c1ccncc1` [Isoniazid (INH), Isoniazid], the MIC in the assay with Mtb mc^26230 was ≤ 3.6 µM.
Regarding `NC(N)=NN=Cc1ccc(Cl)cc1` [Compound 1], at Mtb Eis [1] (setting [5]), the IC50 was 10 ± 3 µM. In addition, the “fold more potent than PRO as an Eis inhibitor” value at Mtb Eis [1] (ratio of IC50 values vs PRO) is recorded as 3 fold. Moreover, the “mode of inhibition with respect to KAN” value at Mtb Eis [2] is given as “competitive inhibition”. Moreover, the Ki on Mtb Eis [2] (read-out: Ki (equilibrium constant for inhibitor binding to free enzyme), with respect to KAN, global nonlinear regression fit) was 17 ± 2.4 µM. Besides, the “MIC mc^26230” value against Mtb mc^26230 is > 64 µM.
In turn, `Fc1cccc(NN=Cc2ccc(Cl)cc2)c1` [Compound 2] yielded an IC50 against Mtb Eis [1] (setting [5]) of 160 ± 49 µM. Further, the “IC50 fold higher than that of PRO” value at Mtb Eis [1] (ratio of IC50 values vs PRO) was determined as 5 fold. In addition, the “mode of inhibition with respect to KAN” value at Mtb Eis [2] is on record as “uncompetitive inhibition”. On Mtb Eis [2] (setting [4]), the “Ki,u (equilibrium constant for inhibitor binding to enzyme-substrate complex)” value was 104 ± 8 µM. Further, in the assay on Mtb mc^26230, the “MIC mc^26230” value was > 64 µM.
Consider `OC(c1cc(C(F)(F)F)nc2c(C(F)(F)F)cccc12)C1CCCCN1` (stereo not shown) [Mefloquine (MEF), Mefloquine], for which the IC50 at Mtb Eis [1] was found to be 4.2 ± 0.8 µM. On Mtb Eis [2], this compound displayed a Ki of 7.2 ± 1.1 µM. In addition, the “Ki,u (equilibrium constant for inhibitor binding to enzyme-substrate complex)” value at Mtb Eis [2] (setting [4]) is on record as 5.9 ± 1.3 (p = 0.0002) μM. The MIC in the assay with Mtb mc^26230 was found to be 16 µM (≈ 6.05 µg/mL). Also, the “inhibition … by AAC(2’)-Ic” value on AAC(2’)-Ic is given as “not inhibited”. Further, the “inhibition … by AAC(3)-IV” value against AAC(3)-IV is given as “not inhibited”. Moreover, the “inhibition … by AAC(6’)-Ie” value on AAC(6’)-Ie/APH(2”)-Ia was “not inhibited”.
`[H]/N=C(\N/C(=N/[H])Nc1ccc(Cl)cc1)NC(C)C` [Proguanil (PRO), Proguanil] yielded an IC50 against Mtb Eis [1] of 30 ± 7 µM. Further, on Mtb Eis [2], the affinity, expressed as Ki, was 28 ± 10 µM. Further, the MIC with Mtb mc^26230 is > 64 µM. Further, at AAC(2’)-Ic, the “inhibition … by AAC(2’)-Ic” value is on record as “not inhibited”. For the same compound, at AAC(3)-IV, the “inhibition … by AAC(3)-IV” value was “not inhibited”. In addition, the “inhibition … by AAC(6’)-Ie” value against AAC(6’)-Ie/APH(2”)-Ia is recorded as “not inhibited”. The “inhibition of NEO acetylation activity of Mtb Eis” value against Mtb Eis [3] was “detectable inhibition”.
Consider `NC[C@H]1O[C@H](O[C@H]2[C@H](O)[C@@H](O[C@H]3O[C@H](CO)[C@@H](O)[C@H](N)[C@H]3O)[C@H](N)C[C@@H]2N)[C@H](O)[C@@H](O)[C@@H]1O` [Kanamycin (KAN), Kanamycin], for which the “MIC mc^26230” value against Mtb mc^26230 came out at 0.17 µM (≈ 0.0824 µg/mL).
With `COc1ccc(C(CN(C)C)C2(O)CCCCC2)cc1` (stereo not shown) [Venlafaxine (VEN), Venlafaxine], inhibition against Mtb Eis [1] was half-maximal at 134 ± 21 µM (IC50). Besides, in the assay with Mtb mc^26230, the MIC was > 64 µM. Moreover, on Mtb Eis [3], the “inhibition of NEO acetylation activity of Mtb Eis” value is given as “detectable inhibition”.
Regarding `[H]/N=C(\N/C(=N/[H])NCCCCCCNC(=N)NC(=N)Nc1ccc(Cl)cc1)Nc1ccc(Cl)cc1` [Chlorhexidine (CHX), Chlorhexidine], the MIC in the assay on Mtb mc^26230 is ≤ 0.03 µM.
For `Fc1ccc(NN=Cc2ccc(Cl)cc2)cc1` [Compound 3], at Mtb Eis [1] (setting [5]), the concentration for half-maximal inhibition (IC50) is > 200 µM. For the same compound, the “IC50 fold higher than that of PRO” value at Mtb Eis [1] (ratio of IC50 values vs PRO) is given as > 7 fold. Also, the “MIC mc^26230” value in the assay on Mtb mc^26230 is > 64 µM.

A word on the IC50: it is the point on the concentration scale where inhibition reaches its midpoint. A lower IC50 goes with greater potency in that assay. As usually defined, the Ki is a measure of affinity in units of concentration, obtained from inhibition or displacement. Broadly, the MIC is the lowest concentration found to suppress growth.
